Experimental findings from ChEMBL document CHEMBL1201862, “PubChem BioAssay data set” (2004) are described below.

Test systems include SK-MEL-28; SF-295; UACC-62; NCI-H23; SNB-75; HCC 2998; DMS-273; M14; SW-620; UO-31; MOLT-4; A498; EKVX; 786-0; OVCAR-5; K562; HCT-116.
What all share (experiment): NCI anticancer screen, dose series, 48 h

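These data come from cells grown in 96-well plates and exposed to compound for 48 hours at five concentrations. GI50: concentration for 50% inhibition of growth.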 Active and inactive are the calls of the source. Rule as the data show it: active = GI50 up to about 1.1 µM and inactive = higher.

Take `Cc1cc(N(CCC#N)CCC#N)ccc1/C=C1\N=C(c2cc([N+](=O)[O-])ccc2Cl)N(c2cccc(Cl)c2)C1=O`: the GI50 in the assay with SK-MEL-28, with SF-295, with UACC-62, in the assay with NCI-H23, in the assay with SNB-75 and in the assay with HCC 2998 was > 100 µM (inactive) each time. Moreover, the GI50 in the assay on DMS-273 was > 100 µM (inactive); in the assay with M14, > 100 µM (inactive); with SW-620 it was < 0.01 µM (active); in the assay with UO-31 it was > 100 µM (inactive); in the assay on MOLT-4 it was 79.6 µM (inactive); in the assay on A498, > 100 µM (inactive). In addition, the GI50 with EKVX is 23.8 µM (inactive); in the assay on 786-0 it was > 100 µM (inactive); in the assay on OVCAR-5, > 100 µM (inactive); in the assay with K562, 96.6 µM (inactive); in the assay on HCT-116, > 100 µM (inactive).
For `O=C1[C@@H]2C(c3ccccc3F)=NO[C@@H]2C(=O)N1c1ccc(Cc2ccc(N3C(=O)[C@H]4C(c5ccccc5F)=NO[C@H]4C3=O)cc2)cc1`, the GI50 with SK-MEL-28, in the assay on SF-295, in the assay on UACC-62, in the assay on NCI-H23, in the assay on SNB-75 and with HCC 2998 was > 100 µM (inactive) each time. Moreover, the GI50 was > 100 µM (inactive) in the assay on DMS-273; > 100 µM (inactive) with M14; > 75.7 µM (inactive) with SW-620; > 100 µM (inactive) in the assay with UO-31; 19.6 µM (inactive) in the assay with MOLT-4; > 100 µM (inactive) in the assay with A498. Moreover, the GI50 is > 100 µM (inactive) with EKVX; > 100 µM (inactive) with 786-0; > 100 µM (inactive) in the assay on OVCAR-5; > 55.1 µM (inactive) in the assay with K562; > 100 µM (inactive) with HCT-116.
Turning to `O=C(O)c1[nH]c(C(=O)O)c(CC(F)(F)C(F)(F)C(F)(F)F)c1CC(F)(F)C(F)(F)C(F)(F)F`, the GI50 in the assay on SK-MEL-28, in the assay on SF-295, in the assay with UACC-62, in the assay on NCI-H23, in the assay on SNB-75 and with HCC 2998 was > 100 µM (inactive) in each case. In addition, the GI50 in the assay on DMS-273, with M14, in the assay on SW-620, in the assay on UO-31, in the assay with A498 and with EKVX was > 100 µM (inactive) each time. Further, the GI50 with 786-0, in the assay with OVCAR-5, in the assay with K562 and in the assay on HCT-116 was > 100 µM (inactive) in each case.
As for `COC1/C(=C\C(=O)OC(C)(C)C)c2ccccc2N1C(C)=O` (stereo unspecified), the GI50 in the assay on SK-MEL-28, with SF-295, in the assay on UACC-62, in the assay with NCI-H23, with SNB-75 and in the assay on HCC 2998 was > 100 µM (inactive) each time. In addition, the GI50 with DMS-273 is > 100 µM (inactive); with M14, > 100 µM (inactive); in the assay with SW-620, > 100 µM (inactive); with UO-31 it was > 100 µM (inactive); in the assay with MOLT-4, 81.7 µM (inactive); with A498, > 100 µM (inactive). Moreover, the GI50 with EKVX, in the assay on 786-0, with K562 and in the assay on HCT-116 was > 100 µM (inactive) each time.
As for `Nc1ncnc2c1ncn2C1CC(OCc2ccccc2[N+](=O)[O-])C(CO)O1` (stereo unspecified), the GI50 in the assay with SK-MEL-28 is 23.8 µM (inactive); with SF-295, 15.6 µM (inactive); in the assay on NCI-H23 it was 23 µM (inactive); with HCC 2998, 28.8 µM (inactive); in the assay on DMS-273 it was 18.4 µM (inactive); in the assay with M14, 15.6 µM (inactive). Moreover, the GI50 is 36 µM (inactive) with SW-620; 17 µM (inactive) with UO-31; 18.4 µM (inactive) with MOLT-4; > 50 µM (inactive) in the assay with A498; 33 µM (inactive) with EKVX; 43.4 µM (inactive) in the assay on 786-0. Moreover, the GI50 with OVCAR-5 is > 50 µM (inactive); with K562 it was 16.1 µM (inactive); with HCT-116, 17.4 µM (inactive).
As to `CCOC(=O)CCn1ncc(Cl)c(Cl)c1=O`, the GI50 is 2.65 µM (inactive) in the assay with SK-MEL-28; 19.5 µM (inactive) in the assay with SF-295; 6.3 µM (inactive) with UACC-62; 2.27 µM (inactive) in the assay on NCI-H23; 14.8 µM (inactive) in the assay on SNB-75; 3.93 µM (inactive) in the assay with HCC 2998. The GI50 was 9.46 µM (inactive) in the assay with DMS-273; 4.21 µM (inactive) in the assay on M14; 3.31 µM (inactive) in the assay with SW-620; 15.7 µM (inactive) with UO-31; 3.13 µM (inactive) in the assay on MOLT-4; 22.7 µM (inactive) in the assay on A498. Moreover, the GI50 in the assay with EKVX is 18.7 µM (inactive); with 786-0, 14.3 µM (inactive); with OVCAR-5 it was 16.7 µM (inactive); in the assay with K562, 2.79 µM (inactive); in the assay on HCT-116, 11.9 µM (inactive).
Regarding `Nc1nnc2c(-c3ccccc3)n[nH]c2n1`, the GI50 is 91.6 µM (inactive) with SK-MEL-28; 67 µM (inactive) in the assay on SF-295; 68.7 µM (inactive) with NCI-H23; 93.5 µM (inactive) with HCC 2998; 50.9 µM (inactive) in the assay with DMS-273; > 100 µM (inactive) in the assay with M14. Moreover, the GI50 is 54.7 µM (inactive) in the assay with SW-620; 28.2 µM (inactive) in the assay on UO-31; 21.7 µM (inactive) in the assay with MOLT-4; 12.9 µM (inactive) in the assay on A498; 5.9 µM (inactive) with EKVX; 62.4 µM (inactive) in the assay on 786-0. The GI50 in the assay on OVCAR-5 is > 100 µM (inactive); in the assay with K562, 39.9 µM (inactive); in the assay on HCT-116, > 100 µM (inactive).
Regarding `CSc1nnc2n1-c1ccccc1SCC2`, the GI50 with SK-MEL-28, with SF-295, in the assay with UACC-62, in the assay with NCI-H23, with SNB-75 and in the assay with HCC 2998 was > 100 µM (inactive) each time. Also, the GI50 in the assay on DMS-273, in the assay on M14, with SW-620, with UO-31, with MOLT-4 and with A498 was > 100 µM (inactive) each time. The GI50 in the assay on EKVX, in the assay with 786-0, in the assay on K562 and with HCT-116 was > 100 µM (inactive) in each case.
Turning to `COc1nc(/C=N/NC(N)=S)nc(OC)n1`, the GI50 was > 100 µM (inactive) with SK-MEL-28; 42.3 µM (inactive) in the assay with SF-295; 35.3 µM (inactive) in the assay with UACC-62; > 100 µM (inactive) in the assay on NCI-H23; 32.7 µM (inactive) with SNB-75; 47.1 µM (inactive) with HCC 2998. Moreover, the GI50 is 56.9 µM (inactive) in the assay on DMS-273; 55.1 µM (inactive) with M14; > 100 µM (inactive) in the assay with SW-620; 56.1 µM (inactive) with UO-31; 56.8 µM (inactive) with MOLT-4; 33.7 µM (inactive) in the assay on A498. The GI50 was > 100 µM (inactive) with EKVX; 58.3 µM (inactive) with 786-0; > 100 µM (inactive) in the assay with OVCAR-5; > 100 µM (inactive) in the assay on K562; 64.4 µM (inactive) in the assay on HCT-116.
As for `CC(C)OP(=S)(NC(=S)c1ccccc1)OC(C)C`, the GI50 is > 100 µM (inactive) in the assay on SK-MEL-28; 76.2 µM (inactive) in the assay with SF-295; > 100 µM (inactive) in the assay on UACC-62; > 100 µM (inactive) in the assay on NCI-H23; > 100 µM (inactive) in the assay with SNB-75; > 100 µM (inactive) in the assay with HCC 2998. Also, the GI50 in the assay on DMS-273, in the assay with M14, in the assay with SW-620, in the assay with UO-31, with MOLT-4 and in the assay on A498 was > 100 µM (inactive) throughout. Moreover, the GI50 with EKVX, in the assay with 786-0, in the assay with OVCAR-5, in the assay on K562 and with HCT-116 was > 100 µM (inactive) throughout.
Take `NCCCC1NC(=O)/C(=C(O)/C=C/C2CCC[C@@H]2CC2SCCS2)C1=O` (stereo partly specified): the GI50 in the assay on SK-MEL-28, in the assay with SF-295, in the assay on UACC-62, in the assay on NCI-H23, in the assay on SNB-75 and in the assay on HCC 2998 was > 100 µM (inactive) throughout. Moreover, the GI50 was 74.8 µM (inactive) with DMS-273; > 100 µM (inactive) in the assay with M14; 57 µM (inactive) in the assay with SW-620; > 100 µM (inactive) in the assay on UO-31; 43.4 µM (inactive) with MOLT-4; > 100 µM (inactive) in the assay on A498. For the same compound, the GI50 is > 100 µM (inactive) with EKVX; > 100 µM (inactive) in the assay with 786-0; > 100 µM (inactive) with OVCAR-5; 31.2 µM (inactive) with K562; > 100 µM (inactive) in the assay on HCT-116.
Regarding `c1ccc2c(CNCCCCCCCCNCc3cccc4ccccc34)cccc2c1`, the GI50 with SK-MEL-28 is 1.9 µM (inactive); with SF-295 it was 1.88 µM (inactive); with UACC-62, 1.8 µM (inactive); with NCI-H23, 3.4 µM (inactive); in the assay with SNB-75 it was 1.9 µM (inactive); in the assay on DMS-273 it was 2.01 µM (inactive). Further, the GI50 was 1.75 µM (inactive) in the assay with M14; 1.8 µM (inactive) with SW-620; 1.87 µM (inactive) in the assay with UO-31; 2.02 µM (inactive) in the assay on MOLT-4; 14.7 µM (inactive) in the assay on A498; 6.03 µM (inactive) in the assay with EKVX. For the same compound, the GI50 with 786-0 was 1.73 µM (inactive); in the assay on OVCAR-5 it was 2 µM (inactive); in the assay with K562, 0.679 µM (active); in the assay with HCT-116, 1.67 µM (inactive).
